Measurements reported in patent US9592183B2, “Inhibitor of endothelin action and skin-whitening agent” (Kao Corporation, priority 2010, dated 2017).
Entries after “also recorded” stand apart in the source; their conditions may differ.

Experiments:
Format in all cases: cell-based
[1] = tested on: endothelin (ET-1)-induced rise in intracellular calcium concentration in normal human neonatal epidermal melanocytes (NHEMs); assay: Endothelin action-suppressing effect: endothelin-induced rise in intracellular calcium (Fluo4-AM, FDSS); conditions: for Effect of suppressing endothelin action (in words): 50 μM; for Rate of rise in intracellular Ca concentration: pretreated 1 minute, ET-1 100 nM, relative value, control = 100, N=6
Description: Normal human neonatal epidermal melanocytes (NHEMs, KURABO INDUSTRIES LTD.) were seeded at 3×10^4 cells/well (200 μL/well) in 96-well plates for use in fluorometry, and cultured at 37° C. under 5% CO2. The medium used was PMA (−), growth additive (HMGS)-containing Medium 254.
After culture for 3 days, the medium was removed from the culture plate by decantation, and replaced with an assay buffer containing a reagent Fluo4-AM for intracellular Ca^2++ measurement, which was followed by incubation at 37° C. for 1 hour. Subsequently, 20 seconds after the start of the measurement, the compound at a predetermined concentration was pretreated for 1 minute in a FDSS (Functional Drug Screening System) instrument, and then endothelin (ET-1, 100 nM final concentration) as a ligand was added to the wells. Fluo4-AM fluorescence was detected at the measurement wavelengths Ex. 480 nm and Em. 540 nm over time from the start of the measurement to 5 minutes later.
For each compound, the rate (%) of rise in intracellular calcium (calcium ion) concentration was calculated as a relative value (%) when an increase (Max ratio−Min ratio) in Fluo4-AM fluorescence in a control was normalized as 100. The suppressing effect of endothelin action was evaluated based on the calculated rate. In the control used, ethanol or a 10 to 95 v/v % aqueous ethanol solution was added at a final concentration of 0.1 to 0.5 v/v %. […]
The compound prepared as described above was pretreated at the final concentration shown in Table 3 and subjected to the assay system. Then, the rate of endothelin-induced rise in Ca concentration was calculated (N=6). […]

[2] = tested on: melanocyte-containing, 3-D cultured skin model (MEL300A); assay: Melanin production-suppressing effect in 3-D cultured skin model stimulated with ET-1 and SCF; conditions: 14 days; for Effect on melanin content / melanin production (in words): 3-D skin model
Description: (§1) A melanocyte-containing, 3-D cultured skin model (MEL300A, KURABO INDUSTRIES LTD.) was cultured at 37° C. under 5% CO2 using an EPI-100-NMM113 medium to which endothelin-1 (ET-1) as a melanocyte activator and SCF (stem cell growth factor) were each added at a final concentration of 10 nM. From the first day of the culture, the baeomycesic acid was added at a final concentration of 50 μM (N=2). The medium was refreshed once every three days. After 14 days, the skin model was washed with PBS and photographed. Subsequently, the cell respiration activity was measured using the Alamar Blue reagent to confirm that the final concentration was not cytotoxic (the results are not shown).
Subsequently, the skin model cup was washed with PBS, and the skin sheet was removed with tweezers, transferred into a tube, and washed three times with PBS. The skin sheet was washed three times with 50% ethanol and twice with 100% ethanol, and then allowed to stand overnight at room temperature, so that it was completely dried. After 200 μL of 2 M NaOH was added, the skin sheet was dissolved at 100° C. A supernatant obtained by centrifugation of the solution was measured for absorbance at a wavelength of 405 nm, and then the melanin content was calculated. The melanin content was expressed as a relative value (%) when the melanin content in a control was normalized as 100. In the control used, ethanol or a 10 to 95 v/v % aqueous ethanol solution was added at a final concentration of 0.1 to 0.5 v/v %.

[3] = tested on: melanocyte-containing, 3-D cultured skin model (MEL300A); assay: Cell respiration activity (Alamar Blue) of the skin model; conditions: final concentration 50 μM, after 14 days; results not shown
Description: as §1

| Compound | Effect of suppressing endothelin action (in words) [1] | Rate of rise in intracellular Ca concentration ([1]; compound 50 μM) | Reduction in melanin content in the skin tissue relative to the control system ([2]; 50 μM, ET-1 and SCF each 10 nM, FIG. 3, N=2) | Skin colour of the skin sheet (photograph, FIG. 2) ([2]; 50 μM, compared with the control system) | Effect on melanin content / melanin production (in words) ([2]; ET-1 and SCF each 10 nM) | Cytotoxicity (cell respiration activity, Alamar Blue) [3] | Suppression of endothelin-induced rise in intracellular Ca concentration ([1]; compound 50 μM, relative to control) |
| --- | --- | --- | --- | --- | --- | --- | --- |
| COc1cc(C)c(C(=O)Oc2cc(C)c(C(=O)O)c(O)c2C)c(O)c1C=O [Baeomycesic Acid, baeomycesic acid] | significantly suppresses the rise in intracellular Ca concentration | 52.7% | at least 40% | light skin color and suppressed skin blackening | significantly suppresses melanin production | not cytotoxic |  |
| COc1cc(C)c(C(=O)Oc2cc(C)c(C(=O)O)c(O)c2C)c(O)c1C [Barbatic Acid, Barbatic acid] |  | 38.4% |  |  |  |  |  |
| COc1cc(C)c(C(=O)Oc2cc(C)c(C(=O)O)c(O)c2C)c(OC)c1C [Diffractaic Acid, Diffractaic acid] |  | 28.0% |  |  |  |  |  |
| COc1cc(C)c(C(=O)Oc2cc(C)c(C(=O)O)c(O)c2C)c(O)c1C(=O)O [Squamatic Acid, squamatic acid, reference compound] | almost no effect of suppressing endothelin action | 95.9% |  |  | no significant reduction in melanin content; also recorded: almost no effect of suppressing melanin production |  | about 4% |
